Experimental data: article PMC11672294, “The Antipsychotic Drug Aripiprazole Suppresses Colorectal Cancer by Targeting LAMP2a to Induce RNH1/miR‐99a/mTOR‐Mediated Autophagy and Apoptosis” (Advanced Science, 2024)
Counter-ions that a name gives are not always drawn. Like-named read-outs stand apart in the source and are kept apart here.

Tested on: HT29
Conditions: 72 h, relative to DMSO, 10 µM
Source text: To investigate the key signaling pathways and biological processes involved in CRC progression, we analyzed the National Center for Biotechnology Information Gene Expression Omnibus (GEO) dataset GSE115313, which included 42 CRC and paired normal tissues (Figure 1A). […] Next, we performed an Annexin V‐fluorescein isothiocyanate (FITC)/propidium iodide (PI) staining assay to determine the effect of aripiprazole on apoptosis in CRC cells. […] A) Principal component analysis of GEO dataset (GSE115313), which includes 42 CRC and paired normal tissues. B) Gene Ontology pathway analysis of the DEPs between CRC and paired normal tissues. […] D) Schematic diagram for identifying anticancer drugs amongst an US Food and Drug Administration‐approved small‐molecule library (616 compounds) using WST‐1 assay. E) HT29 cells were treated with the 616 drugs (10 µM) individually or with dimethyl sulfoxide for 72 h, followed by WST‐1 assay. […] J) Mice bearing HT29‐derived tumor xenografts were intragastrically administered with aripiprazole (10 or 20 mg kg^−1) once every 2 d, n = 6 mice/group. […] Bars, SD; ^* p < 0.05; ^** p < 0.01; ^*** p < 0.001; ns, no significant difference. The WST‐1 Cell Proliferation and Cytotoxicity Assay Kit (Beyotime Biotechnology, Shanghai, China) was used to measure cell viability, as described previously.^[ [10] ^] CRC cells were seeded into 96‐well plates and treated with different drug concentrations. Following that, WST‐1 was added to the plate and incubated with the cells for 2 h, at 37 °C. Absorbance at the wavelength of 450 nm was measured using an automated microplate spectrophotometer (BioTek Instruments, Winooski, VT, USA).

Structure (SMILES)	Relative cell viability (%)	Relative cell viability (%) (Relative cell viability (%))
CC(=O)OCC(=O)[C@@]12N=C(C)O[C@@H]1C[C@H]1[C@@H]3CCC4=CC(=O)C=C[C@]4(C)[C@H]3[C@@H](O)C[C@@]12C [Deflazacort]	91.95%	
CNC(=C[N+](=O)[O-])NCCSCc1ccc(CN(C)C)o1 [Ranitidine]	97.03%	
CCOC(=O)C1=C(C)NC(C)=C(C(=O)OCC)C1c1ccccc1/C=C/C(=O)OC(C)(C)C [Lacidipine]	79.32%	
CC[C@@]1(O)C(=O)OCc2c1cc1n(c2=O)Cc2cc3c(CN(C)C)c(O)ccc3nc2-1 [Topotecan HCl]	16.67%	
CC[C@]1(O)C[C@H]2CN(CCc3c([nH]c4ccccc34)[C@@](C(=O)OC)(c3cc4c(cc3OC)N(C=O)[C@H]3[C@@](O)(C(=O)OC)[C@H](OC(C)=O)[C@]5(CC)C=CCN6CC[C@]43[C@@H]65)C2)C1 [Vincristine]	22.9%	
COc1ccccc1Oc1c(NS(=O)(=O)c2ccc(C(C)(C)C)cc2)nc(-c2ncccn2)nc1OCCO [Bosentan Hydrate]		83.98%
CC1=NN(c2ccc(C)c(C)c2)C(=O)/C1=N\Nc1cccc(-c2cccc(C(=O)O)c2)c1O [Eltrombopag Olamine]	122%	
CN1C2=CC(=O)/C(=N\NC(N)=O)C=C2CC1S(=O)(=O)O (stereo not drawn) [Carbazochrome sodium sulfonate (AC-17)]	50.49%	
CCCNC(=O)NS(=O)(=O)c1ccc(Cl)cc1 [Chlorpropamide]	79.39%	
C/C(=C\c1csc(C)n1)[C@@H]1C[C@@H]2O[C@]2(C)CCC[C@H](C)[C@H](O)[C@@H](C)C(=O)C(C)(C)[C@@H](O)CC(=O)O1 [Epothilone B (EPO906, Patupilone)]	7.321%	
CCOC(=O)c1ccc(N)cc1 [Benzocaine]	80.303%	
CO[C@H]1C(=O)[C@]2(C)[C@@H](OC)C[C@H]3OC[C@@]3(OC(C)=O)[C@H]2[C@H](OC(=O)c2ccccc2)[C@]2(O)C[C@H](OC(=O)[C@H](O)[C@@H](NC(=O)OC(C)(C)C)c3ccccc3)C(C)=C1C2(C)C [Cabazitaxel]	12.62%	
O=C(O)c1ccccc1Nc1cccc(C(F)(F)F)c1 [Flufenamic acid]	80.303%	
COc1cccc2c1C(=O)c1c(O)c3c(c(O)c1C2=O)C[C@@](O)(C(C)=O)C[C@@H]3O[C@H]1C[C@H](N)[C@H](O)[C@H](C)O1 [Daunorubicin HCl]	12.62%	
Nc1nccs1 [Aminothiazole]	93.03%	
Cc1cc(/C=C/C#N)cc(C)c1Nc1ccnc(Nc2ccc(C#N)cc2)n1 [Rilpivirine]	58.55%	
C=C[C@]1(C)C[C@@H](OC(=O)CSC(C)(C)CNC(=O)[C@H](N)C(C)C)[C@]2(C)[C@H](C)CC[C@]3(CCC(=O)[C@H]32)[C@@H](C)[C@@H]1O [Valnemulin HCl]	68.48%	
C[C@@H]1CN(c2c(F)c(N)c3c(=O)c(C(=O)O)cn(C4CC4)c3c2F)C[C@H](C)N1 [Sparfloxacin]	75.42%	
C=CCc1cc(OC)c(O)c(C(=O)NCCO)c1 [Alibendol]	149.2%	
C[N+]1(C)[C@@H]2C[C@@H](OC(=O)[C@H](CO)c3ccccc3)C[C@H]1[C@@H]1O[C@@H]12 [Methscopolamine]	132.5%	

Structure (SMILES)	Relative cell viability (%)	Relative cell viability (%) (Relative cell viability (%))
C[C@@H]1C[C@H]2[C@@H]3CCC4=CC(=O)C=C[C@]4(C)[C@@]3(F)[C@@H](O)C[C@]2(C)[C@@]1(O)C(=O)CO [Dexamethasone (DHAP)]	75.86%	
C[C@H]1O[C@H](O[C@H]2[C@H](O)[C@@H](O)[C@@H](O[C@H]3[C@H](O)[C@@H](O)C(O)O[C@@H]3CO)O[C@@H]2CO)[C@H](O)[C@@H](O)[C@@H]1N[C@H]1C=C(CO)[C@@H](O)[C@H](O)[C@H]1O (stereo partly drawn) [Acarbose]	103.9%	
CCN1CCN(c2cc3c(cc2F)c(=O)c(C(=O)O)cn3C2CC2)CC1 [Enrofloxacin]	78.16%	
O=C(NS(=O)(=O)c1ccc(Br)s1)c1ccc(Cl)cc1Cl [Tasisulam]	94.44%	
O=C1OC(CN2CCOCC2)CN1/N=C/c1ccc([N+](=O)[O-])o1 (stereo not drawn) [Furaltadone HCl]	75.76%	
FC(F)(F)c1ccc(/C=C/c2nc(COc3ccc(CCCCn4ccnn4)cc3)co2)cc1 [Mubritinib (TAK 165)]	116.7%	
CNC(=O)[C@H](Cc1ccccc1)NC(=O)[C@H](CC(C)C)[C@H](CSc1cccs1)C(=O)NO [Batimastat (BB-94)]	103.4%	
CC(=O)OCC(=O)NCCCOc1cccc(CN2CCCCC2)c1 [Roxatidine Acetate HCl]	111%	
CC[C@H](C)C(=O)O[C@H]1C[C@H](O)C=C2C=C[C@H](C)[C@H](CC[C@@H](O)C[C@@H](O)CC(=O)O)[C@H]21 [Pravastatin sodium]	89.81%	
CN(C)C(=O)c1cc2cnc(Nc3ccc(N4CCNCC4)cn3)nc2n1C1CCCC1 [LEE011]	66.24%	
Cc1c(Cl)cccc1Nc1ccccc1C(=O)O [Tolfenamic Acid]	166.2%	
COc1cc(C)c(/C=C/C(C)=C/C=C/C(C)=C/C(=O)O)c(C)c1C [Acitretin]	60.28%	
COc1ccc2nc([S@@+]([O-])Cc3ncc(C)c(OC)c3C)[nH]c2c1 [Esomeprazole Sodium]		105.5%
O=C1CC2(CCCC2)CC(=O)N1CCCCN1CCN(c2ncccn2)CC1 [Buspirone HCl]	73.94%	
COc1ccc(C(=O)CC(=O)c2ccc(C(C)(C)C)cc2)cc1 [Avobenzone]	117.3%	
CC(C)NCC(O)COc1ccc(CCOCC2CC2)cc1 (stereo not drawn) [Betaxolol]		109.6%
Cc1oncc1C(=O)Nc1ccc(C(F)(F)F)cc1 [Leflunomide]	55.61%	
COc1cc2nc(N3CCN(C(=O)C4CCCO4)CC3)nc(N)c2cc1OC (stereo not drawn) [Terazosin HCl]		142.1%
CS(=O)(=O)c1ccc(C2=C(c3ccccc3)C(=O)OC2)cc1 [Rofecoxib]	116%	
CCC1(C)CC(=O)NC(=O)C1 [Bemegride]	88.48%	

Structure (SMILES)	Relative cell viability (%)	Relative cell viability (%) (Relative cell viability (%))
O=c1ccn([C@@H]2O[C@H](CO)[C@@H](O)[C@H]2O)c(=O)[nH]1 [Uridine]	222.2%	
C[C@@H]1CC[C@H]2[C@@H](C)C(=O)O[C@@H]3O[C@@]4(C)CC[C@@H]1[C@]32OO4 [Artemisinin]	110.1%	
CS(=O)(=O)Nc1ccc([N+](=O)[O-])cc1Oc1ccccc1 [Nimesulide]	191.7%	
O=C(NC[C@H]1CN(c2ccc(N3CCOCC3=O)cc2)C(=O)O1)c1ccc(Cl)s1 [Rivaroxaban]	107.3%	
CCN(CC)CCNC(=O)c1cc(Cl)c(N)cc1OC [MetoclopraMide HCl]	75.76%	
C[C@@H]1CCO[C@H]2Cn3cc(C(=O)NCc4ccc(F)cc4F)c(=O)c(O)c3C(=O)N12 [Dolutegravir (GSK1349572)]	70.87%	
Nc1ccc(/N=N/c2ccccc2)c(N)n1 [Phenazopyridine HCl]	73.94%	
CN1CCN2c3ccccc3Cc3ccccc3C2C1 (stereo not drawn) [Mianserin HCl]	57.17%	
CN1CCC(COc2cnc(-c3cccc(Cn4nc(-c5cccc(C#N)c5)ccc4=O)c3)nc2)CC1 [Tepotinib (EMD 1214063)]	11.11%	
CC(C)OC(=O)[C@H](C)N[P@](=O)(CO[C@H](C)Cn1cnc2c(N)ncnc21)Oc1ccccc1 [Tenofovir Alafenamide (GS-7340)]	125.2%	
CC1CNc2c(cccc2S(=O)(=O)N[C@@H](CCCNC(=N)N)C(=O)N2CC[C@@H](C)C[C@@H]2C(=O)O)C1 (stereo partly drawn) [Argatroban]	123.2%	
COc1ccccc1OCC(O)CN1CCN(CC(=O)Nc2c(C)cccc2C)CC1 (stereo not drawn) [Ranolazine]	67.8%	
CC(=O)OCC[N+](C)(C)C [Acetylcholine Chloride]	93.22%	
CC[C@H](Nc1ncnc2[nH]cnc12)c1nc2cccc(F)c2c(=O)n1-c1ccccc1 [CAL-101 (Idelalisib, GS-1101)]	112.6%	
COc1cccc(-c2ccc(NC(=O)C3=C(C(=O)O)CCC3)c(F)c2)c1 [Vidofludimus]	104.7%	
C[C@@H](O)[C@H]1C(=O)N2C(C(=O)O)=C(S[C@@H]3CN[C@H](CNS(N)(=O)=O)C3)[C@H](C)[C@H]12 [Doripenem Hydrate]	88.32%	
CC(C(=O)O)c1ccc2c(c1)Cc1cccnc1O2 (stereo not drawn) [Pranoprofen]	135%	
C[C@H]1O[C@@H](n2cc(F)c(=O)[nH]c2=O)[C@H](O)[C@@H]1O [Doxifluridine]	150.2%	
O=C(NC(Cc1cc(=O)[nH]c2ccccc12)C(=O)O)c1ccc(Cl)cc1 (stereo not drawn) [Rebamipide]	125.4%	
OC[C@H]1OC(O)[C@H](O)[C@@H](O)[C@@H]1O (stereo partly drawn) [Dextrose]	126.7%	
